{
  "source": "patent US20130202685A1",
  "about": "“Use of a histamine H4 antagonist for the treatment of post-operative adhesions” (Janssen Pharmaceutica NV, priority 2008, published 2013)",
  "key": {"[1]": {"system": "adhesion formation at the site of sidewall injury", "test": "Peritoneal sidewall adhesion model (rabbit)", "format": "in vivo", "settings": "for Adhesion Area / Adhesion Tenacity: individual animals; for Adhesion Area Mean/SEM: group mean; for Adhesion Tenacity Mean/SEM (mean of the rank of the tenacity): group mean rank; for Adhesion Tenacity: score 0-3", "procedure": "Multiple studies to confirm the efficacy of histamine H4 receptor antagonists in the reduction or inhibition of adhesion formation after peritoneal surgery were performed using a sidewall adhesion model.\nAnimals: Twenty eight female New Zealand White rabbits, 2.4-2.7 kg, were purchased from Irish Farms and quarantined for at least 2 days prior to use. The rabbits were housed on a 12:12 light:dark cycle with food and water available ad libitum.\nRabbits were anesthetized with a mixture of 55 mg/kg ketamine hydrochloride and 5 mg/kg Rompum intramuscularly. Following preparation for sterile surgery, a midline laparotomy was performed. A polyethylene catheter (Clay Adams polyethylene tubing PE-60 ID 0.76 mm (0.030″) OD 1.22 mm (0.048″)) was introduced into the peritoneal cavity and sutured to the sidewall with 5-0 Ethilon. For local administration, an Alzet miniosmotic pump (10 μl/hour, 2 ml, Model 2ML1 from Durect), filled with one dosage level or placebo (water for injection) control at 10 μl/hour over 7 days starting with the day of surgery was placed in the subcutaneous space. The catheter was then attached to the pump and the midline muscle incision was closed around the catheter. The cecum and bowel were exteriorized and digital pressure was exerted to create subserosal hemorrhages over all surfaces. The damaged intestine was then lightly abraded with 4″×4″ 4-ply sterile gauze until punctate bleeding was observed. The cecum and bowel was then returned to their normal anatomic position. A 5×3 cm area of peritoneum and transversus abdominous muscle was removed on the right lateral abdominal wall. The incision was closed in two layers with 3-0 Vicryl (Ethicon, Somerville, N.J.). The pump was replaced at day 7.\nTwenty-one days after surgery, rabbits were sacrificed by intravenous EuthaSol. Adhesion formation at the site of sidewall injury was assessed by examination to determine the percentage of the area of the sidewall injury involved in adhesions. The percentage of a surface of the sidewall involved in adhesions to various organs are given in the tables below to quantify the overall adhesion score. In addition, tenacity of the adhesion formed was scored using a system as follows:\n1=mild, easily dissectible adhesions;\n3=dense adhesions; non-dissectible, tears when removed.\nThe difference in adhesion formation between the control and treated groups were analyzed by Student's t-test. A reduction in the area and the tenacity of the adhesions would be considered beneficial and efficacious.\nGeneral observations were conducted on each animal (appearance, behavior, clinical signs, symptoms, moribundity, mortality, and physical examinations) prior to assignment to study and on the day of necropsy. On the day of necropsy data and observations were recorded with particular attention to inflammation, granulomatous material and adhesion formation at the treatment site. All biocompatibility results were recorded, and the level of reaction was noted (none, mild, moderate, severe)."}, "[2]": {"system": "adhesion formation at the site of sidewall injury", "test": "Peritoneal sidewall adhesion model (rabbit)", "format": "in vivo", "settings": "individual animals"}, "[3]": {"settings": "5 mg/ml, non-systemic by Alzet pump, 21 days after surgery"}, "[4]": {"settings": "5 mg/ml, non-systemic by pump, result in words"}},
  "note": "Where “and” joins values, the source holds several entries; their conditions need not be identical. Identical values can stand only once.",
  "data": [
    {"compound": "CN1CCN(C(=O)c2c[nH]c3ccc(Cl)cc23)CC1", "note": "[(5-Chloro-1H-indol-3-yl)-(4-methyl-piperazin-1-yl)-methanone]", "values": [
      {"measurement": "Adhesion Area", "setting": "[1]; 5 mg/ml, non-systemic by Alzet pump 10 μl/hour, 21 days after surgery", "result": "60 percentage and 70 percentage and 40 percentage and 80 percentage and 50 percentage and 100 percentage (2×)"},
      {"measurement": "Adhesion Area Mean/SEM", "setting": "[1]; [3]", "result": "71.4 ± 8.8", "unit": "percentage"},
      {"measurement": "Adhesion Tenacity Mean/SEM (mean of the rank of the tenacity)", "setting": "[1]; [3]", "result": "6.93 ± 1.4"},
      {"measurement": "Adhesion Tenacity", "setting": "[1]; [3]", "result": "1 (6×) and 2"},
      {"measurement": "clinical signs", "setting": "[1]; 5 mg/ml, non-systemic by pump, general observations", "result": "No other rabbits showed any clinical signs"},
      {"measurement": "inflammatory or granulomatous reactions in the peritoneal cavity", "setting": "[1]; 5 mg/ml, non-systemic by pump, necropsy observation", "result": "no inflammatory or granulomatous reactions"},
      {"measurement": "area of adhesions versus control", "setting": "[1]; [4]", "result": "significantly reduced"},
      {"measurement": "tenacity of adhesions versus control", "setting": "[1]; [4]", "result": "significantly reduced"}
    ]},
    {"compound": "Cc1cc(C)c2nc(-c3cnc(NCCCC4CCN(C)CC4)nc3C)[nH]c2c1", "note": "[Test Compound, [5-(4,6-dimethyl-1H-benzoimidazol-2-yl)-4-methyl-pyrimidin-2-yl]-[3-(1-methyl-piperidin-4-yl)-propyl]-amine]", "values": [
      {"measurement": "Adhesion Area", "setting": "[1]; 0.1 mg/ml, non-systemic (pump), 21 days after surgery", "result": "80 percentage (2×) and 100 percentage (3×) and 70 percentage (2×)"},
      {"measurement": "Adhesion Area Mean/SEM", "setting": "[1]; 0.1 mg/ml, non-systemic (pump)", "result": "85.7 ± 5.28", "unit": "percentage"},
      {"measurement": "Adhesion Tenacity Mean/SEM (mean of the rank of the tenacity)", "setting": "[1]; 0.1 mg/ml, non-systemic (pump)", "result": "20.1 ± 3.37"},
      {"measurement": "Adhesion Tenacity", "setting": "[1]; 0.1 mg/ml, non-systemic (pump)", "result": "2 (5×) and 3 and 1"},
      {"measurement": "Adhesion Area", "setting": "[1]; 1 mg/ml, non-systemic (pump), 21 days after surgery", "result": "80 percentage (3×) and 70 percentage and 60 percentage (3×)"},
      {"measurement": "Adhesion Area Mean/SEM", "setting": "[1]; 1 mg/ml, non-systemic (pump)", "result": "70 ± 10", "unit": "percentage"},
      {"measurement": "Adhesion Tenacity Mean/SEM (mean of the rank of the tenacity)", "setting": "[1]; 1 mg/ml, non-systemic (pump)", "result": "13.9 ± 3.38"},
      {"measurement": "Adhesion Tenacity", "setting": "[1]; 1 mg/ml, non-systemic (pump)", "result": "2 (4×) and 1 (3×)"},
      {"measurement": "Adhesion Area", "setting": "[1]; 10 mg/ml, non-systemic (pump), 21 days after surgery", "result": "100 percentage (2×) and 60 percentage (2×) and 80 percentage (2×) and 90 percentage"},
      {"measurement": "Adhesion Area Mean/SEM", "setting": "[1]; 10 mg/ml, non-systemic (pump)", "result": "81.4 ± 6.34", "unit": "percentage"},
      {"measurement": "Adhesion Tenacity Mean/SEM (mean of the rank of the tenacity)", "setting": "[1]; 10 mg/ml, non-systemic (pump)", "result": "18.3 ± 1.43"},
      {"measurement": "Adhesion Tenacity", "setting": "[1]; 10 mg/ml, non-systemic (pump)", "result": "2 (6×) and 1"},
      {"measurement": "Adhesion Area Mean/SEM", "setting": "[1]; 30 mg/kg orally", "result": "78.6 ± 8.85", "unit": "percentage"},
      {"measurement": "Adhesion Tenacity Mean/SEM (mean of the rank of the tenacity)", "setting": "[1]; 30 mg/kg orally", "result": "17.6 ± 5.27"},
      {"measurement": "tenacity of adhesions", "setting": "[1]; mid-dose (1 mg/ml) administered by pump, not statistically significant, result in words", "result": "appeared reduced"},
      {"measurement": "area of adhesion reduction", "setting": "[1]; mid-dose (1 mg/ml) administered by pump, result in words", "result": "statistically significant"},
      {"measurement": "Adhesion Area", "setting": "[2]; 30 mg/kg orally (gavage on day of surgery and four additional days), 21 days after surgery", "result": "100 percentage (3×) and 40 percentage and 70 percentage and 80 percentage and 60 percentage"},
      {"measurement": "Adhesion Tenacity", "setting": "[2]; 30 mg/kg orally, score 0-3", "result": "3 (2×) and 1 (3×) and 2 (2×)"}
    ]}
  ]
}
